Converted amounts (≈) assume the structure as drawn. Like-named read-outs stand apart in the source and are kept apart here.
Tests used:
[1] = test system: A. baumannii KW1 strains with β-lactamase plasmids; experiment: Etest MIC of β-lactams, extended-spectrum β-lactamase, AmpC β-lactamase or carbapenemase (Table 18); type: cell-based, Acinetobacter baumannii; conditions: production of each carbapenemase tested
Protocol: DNA fragments of the resistance genes along with their flanking regions were amplified from clinical plasmids via PCR with specific primer pairs. The resulting PCR fragments were digested and then cloned into the plasmid pYMAb5 or pYMAb5Tc. The resulting plasmids were then transformed into A. baumannii KW1 via electroporation.
(§1) The MICs of antibiotics were determined using the Etest (Biodisk AB, Sweden) according to the manufacturer's instructions. The MICs from the Etest, which fall between standard two-fold dilutions, were rounded up to the next highest two-fold value. The MICs of ceftazidime and cefotaxime against K. pneumoniae NVT1001 harbouring the pACYC177 plasmid with blaOXA-48 were further determined using a broth microdilution test according to the recommendations of the CLSI,^25 and the results were interpreted according to the breakpoints established by the CLSI in 2017.^25 Meanwhile, due to the lack of CLSI breakpoints in 2016 and 2017, the results for cephalothin were interpreted according to the breakpoints established by the CLSI in 2015,^26 and the results for moxifloxacin were interpreted according to the breakpoints established by the EUCAST in 2017.^27

[2] = test system: K. pneumoniae NVT1001 harbouring the pACYC177 plasmid with blaOXA-48; experiment: Broth microdilution MIC (CLSI); type: cell-based; conditions: Klebsiella pneumoniae; broth microdilution test; NVT1001 with pACYC177 blaOXA-48
Protocol: as §1

[3] = test system: K. pneumoniae NVT1001 harbouring the pACYC177 plasmid with blaOXA-48; experiment: Mouse peritonitis-sepsis infection model; type: in vivo, Klebsiella pneumoniae; conditions: BALB/c mice, 30 mg/kg
Protocol: Pathogen-free 6- to 8-week-old male BALB/c mice were obtained from the National Laboratory Animal Center (Taiwan) and maintained in the pathogen-free vivarium of the Laboratory Animal Center of National Defense Medical Center (Taiwan). K. pneumoniae NVT1001 harbouring the pACYC177 plasmid with blaOXA-48 was cultured overnight at 37° C. in BHI broth and then diluted (1:100) in fresh BHI broth. The culture was incubated until the mid-exponential growth phase, and the cells were then washed once, resuspended in 0.85% sterile saline, and adjusted to the desired concentrations according to the OD600 value. The concentrations were verified by plating the cells to determine viable counts. […] Meanwhile, antibiotic doses were prepared in 0.85% sterile saline. At 1 hour post-inoculation, antibiotic or 0.85% sterile saline alone was administered as a single subcutaneous injection with a volume of 0.3 mL per dose. The mice were then monitored daily for 7 days to measure survival.

[4] = test system: K. pneumoniae NVT1001 and its GyrA/ParC and ΔramR mutants; experiment: Etest MIC of quinolones, GyrA/ParC mutations and AcrAB-TolC overexpression (ΔramR) (Table 10); type: cell-based; conditions: Klebsiella pneumoniae
Description: DNA fragments of the entire gyrA and parC sequences along with their flanking regions were amplified from K. pneumoniae strain NVT1001 using PCR with specific primer pairs and then cloned into the plasmid pUT-KB. The QuikChange site-directed mutagenesis kit (Stratagene) was used to generate mutations in the gyrA and parC genes in the plasmid using the methods described by the manufacturer. For homologous recombination, plasmids containing mutations in the gyrA or parC gene were transformed into E. coli S17-1 λpir^23 via electroporation and mobilized into K. pneumoniae strain NVT1001 via conjugation. Single-crossover strains were selected from BIND plates supplemented with kanamycin (50 mg/L), as the growth of non-K. pneumoniae contaminants is suppressed on BIND plates.^24 After the kanamycin-resistant transconjugants were selected, the insertion of plasmids was verified via PCR. After incubation in 20 mL BHI broth for 6 hours at 37° C. in the absence of kanamycin, the fully grown cultures were spread onto LB agar plates supplemented with 10% sucrose. After the double crossover occurred, the sucrose-resistant and kanamycin-susceptible colonies were selected, and the gene mutations were confirmed via PCR.
as §1

[5] = test system: A. baumannii KW1 and its GyrA/ParC mutants; experiment: Etest MIC of quinolones, GyrA and/or ParC mutations (Table 17); type: cell-based; conditions: Acinetobacter baumannii
Description: DNA fragments of the entire adeR, adeS, gyrA and parC along with their flanking regions were amplified from A. baumannii KW1 using PCR with specific primer pairs and then cloned into plasmid pUT-KB. The QuikChange site-directed mutagenesis kit (Stratagene) was used to generate mutations in the adeR, adeS, gyrA and parC genes in the plasmids using the methods described by the manufacturer. For homologous recombination, plasmids containing mutations in the adeR, adeS, gyrA or parC gene were transformed into E. coli S17-1 λpir^23 via electroporation and mobilized into A. baumannii KW1 via conjugation. Single-crossover strains were selected from Luria-Bertani (LB) plates supplemented with cefotaxime (1 μg/ml) and kanamycin ([…]), as the growth of non-A. baumannii contaminants is suppressed by cefotaxime (1 μg/ml). The kanamycin-resistant transconjugants were selected and the insertion of plasmids was verified via PCR. After incubation in 20 ml brain heart infusion (BHI) broth for 6 hours in the absence of kanamycin at 37° C., the fully grown cultures were spread onto LB plates supplemented with 10% sucrose. After the double crossover occurred, the sucrose-resistant and kanamycin-susceptible colonies were selected, and the gene mutations were confirmed via PCR.
as §1

Compound	MIC ([4]; D87N mutant (GyrA D87N))	MIC ([4]; D87N/S80I mutant)	MIC ([4]; NVT1001, read-out: MIC)	MIC ([4]; S80I mutant (ParC S80I))	MIC ([4]; S83F mutant (GyrA S83F))	MIC ([4]; S83F/D87N mutant)	MIC ([4]; S83F/D87N/S80I mutant)	MIC ([4]; S83F/S80I mutant)	MIC ([4]; S83I mutant (GyrA S83I))	MIC ([4]; S83I/D87N mutant)	MIC ([4]; S83I/D87N/S80I mutant)	MIC ([4]; S83I/S80I mutant)	MIC ([4]; S83L mutant (GyrA S83L))	MIC ([4]; S83L/D87N mutant)	MIC ([4]; S83L/D87N/S80I mutant)	MIC ([4]; S83L/S80I mutant)	MIC ([4]; S83Y mutant (GyrA S83Y))	MIC ([4]; S83Y/D87N mutant)	MIC ([4]; S83Y/D87N/S80I mutant)	MIC ([4]; S83Y/S80I mutant)	further results
C[C@H]1[C@H](NC(=O)/C(=N\OC(C)(C)C(=O)O)c2csc(N)n2)C(=O)N1S(=O)(=O)O [Aztreonam]																					effects on the MIC [1]: no increase effects
CO/N=C(\C(=O)N[C@@H]1C(=O)N2C(C(=O)O)=C(COC(C)=O)CS[C@H]12)c1csc(N)n1 [Cefotaxime]																					MIC [2]: 2 µg/mL (≈ 4.39 µM); survival of mice [3]: no mice survived
C[C@H]1COc2c(N3CCN(C)CC3)c(F)cc3c(=O)c(C(=O)O)cn1c23 [Levofloxacin, levofloxacin]	0.5 µg/mL	0.5 µg/mL	0.06 µg/mL	0.125 µg/mL	0.5 µg/mL	0.5 µg/mL	8 µg/mL	0.5 µg/mL	0.5 µg/mL	1 µg/mL	8 µg/mL	2 µg/mL	0.5 µg/mL	0.5 µg/mL	8 µg/mL	1 µg/mL	0.5 µg/mL	0.5 µg/mL	4 µg/mL	1 µg/mL	MIC ([4]; ΔramR mutant): 1 µg/mL; MIC ([4]; ΔramR/S83I mutant): 16 µg/mL; MIC ([4]; ΔramR/S83I/D87N/S80I mutant): > 32 µg/mL; MIC ([4]; ΔramR/S83I/S801 mutant): > 32 µg/mL; MIC ([5]; E84K mutant): 0.19 µg/mL; MIC ([5]; G78C mutant): 0.19 µg/mL; MIC ([5]; KW1, read-out: MIC): 0.19 µg/mL; MIC ([5]; S80L mutant): 0.19 µg/mL; MIC ([5]; S80W mutant): 0.19 µg/mL; MIC ([5]; S80Y mutant): 0.19 µg/mL; MIC ([5]; S83L mutant): 1 µg/mL; MIC ([5]; S83L/E84K mutant): > 32 µg/mL; MIC ([5]; S83L/G78C mutant): 32 µg/mL; MIC ([5]; S83L/S80L mutant): > 32 µg/mL; MIC ([5]; S83L/S80W mutant): > 32 µg/mL; MIC ([5]; S83L/S80Y mutant): > 32 µg/mL
COc1c(N2C[C@@H]3CCCN[C@@H]3C2)c(F)cc2c(=O)c(C(=O)O)cn(C3CC3)c12 [Moxifloxacin, moxifloxacin]	0.5 µg/mL	1 µg/mL	0.125 µg/mL	0.25 µg/mL	0.5 µg/mL	0.5 µg/mL	32 µg/mL	1 µg/mL	1 µg/mL	1 µg/mL	> 32 µg/mL	8 µg/mL	0.5 µg/mL	0.5 µg/mL	32 µg/mL	2 µg/mL	0.5 µg/mL	0.5 µg/mL	32 µg/mL	1 µg/mL	MIC ([4]; ΔramR mutant): 1 µg/mL; MIC ([4]; ΔramR/S83I mutant): 8 µg/mL; MIC ([4]; ΔramR/S83I/D87N/S80I mutant): > 32 µg/mL; MIC ([4]; ΔramR/S83I/S801 mutant): > 32 µg/mL; MIC ([5]; E84K mutant): 0.19 µg/mL; MIC ([5]; G78C mutant): 0.19 µg/mL; MIC ([5]; KW1, read-out: MIC): 0.19 µg/mL; MIC ([5]; S80L mutant): 0.25 µg/mL; MIC ([5]; S80W mutant): 0.19 µg/mL; MIC ([5]; S80Y mutant): 0.19 µg/mL; MIC ([5]; S83L mutant): 0.75 µg/mL; MIC ([5]; S83L/E84K mutant): 6 µg/mL; MIC ([5]; S83L/G78C mutant): 4 µg/mL; MIC ([5]; S83L/S80L mutant): 6 µg/mL; MIC ([5]; S83L/S80W mutant): 8 µg/mL; MIC ([5]; S83L/S80Y mutant): 6 µg/mL
CCn1cc(C(=O)O)c(=O)c2ccc(C)nc21 [Nalidixic acid, nalidixic acid]	> 256 µg/mL	> 256 µg/mL	4 µg/mL	8 µg/mL	> 256 µg/mL	> 256 µg/mL	> 256 µg/mL	> 256 µg/mL	> 256 µg/mL	> 256 µg/mL	> 256 µg/mL	> 256 µg/mL	> 256 µg/mL	> 256 µg/mL	> 256 µg/mL	> 256 µg/mL	> 256 µg/mL	> 256 µg/mL	> 256 µg/mL	> 256 µg/mL	MIC ([4]; ΔramR mutant): 32 µg/mL; MIC ([4]; ΔramR/S83I mutant): > 256 µg/mL; MIC ([4]; ΔramR/S83I/D87N/S80I mutant): > 256 µg/mL; MIC ([4]; ΔramR/S83I/S801 mutant): > 256 µg/mL; MIC ([5]; E84K mutant): 12 µg/mL; MIC ([5]; G78C mutant): 12 µg/mL; MIC ([5]; KW1, read-out: MIC): 12 µg/mL; MIC ([5]; S80L mutant): 12 µg/mL; MIC ([5]; S80W mutant): 12 µg/mL; MIC ([5]; S80Y mutant): 12 µg/mL; MIC ([5]; S83L mutant): > 256 µg/mL; MIC ([5]; S83L/E84K mutant): > 256 µg/mL; MIC ([5]; S83L/G78C mutant): > 256 µg/mL; MIC ([5]; S83L/S80L mutant): > 256 µg/mL; MIC ([5]; S83L/S80W mutant): > 256 µg/mL; MIC ([5]; S83L/S80Y mutant): > 256 µg/mL
CCn1cc(C(=O)O)c(=O)c2cc(F)c(N3CCNCC3)cc21 [Norfloxacin, norfloxacin]	2 µg/mL	2 µg/mL	0.25 µg/mL	0.25 µg/mL	2 µg/mL	2 µg/mL	32 µg/mL	8 µg/mL	2 µg/mL	2 µg/mL	64 µg/mL	16 µg/mL	2 µg/mL	2 µg/mL	64 µg/mL	8 µg/mL	2 µg/mL	2 µg/mL	32 µg/mL	8 µg/mL	MIC ([4]; ΔramR mutant): 2 µg/mL; MIC ([4]; ΔramR/S83I mutant): 8 µg/mL; MIC ([4]; ΔramR/S83I/D87N/S80I mutant): > 256 µg/mL; MIC ([4]; ΔramR/S83I/S801 mutant): 128 µg/mL; MIC ([5]; E84K mutant): 4 µg/mL; MIC ([5]; G78C mutant): 4 µg/mL; MIC ([5]; KW1, read-out: MIC): 4 µg/mL; MIC ([5]; S80L mutant): 4 µg/mL; MIC ([5]; S80W mutant): 6 µg/mL; MIC ([5]; S80Y mutant): 4 µg/mL; MIC ([5]; S83L mutant): 24 µg/mL; MIC ([5]; S83L/E84K mutant): > 256 µg/mL; MIC ([5]; S83L/G78C mutant): > 256 µg/mL; MIC ([5]; S83L/S80L mutant): > 256 µg/mL; MIC ([5]; S83L/S80W mutant): > 256 µg/mL; MIC ([5]; S83L/S80Y mutant): > 256 µg/mL
CC1COc2c(N3CCN(C)CC3)c(F)cc3c(=O)c(C(=O)O)cn1c23 (stereo not drawn) [Ofloxacin, ofloxacin]	1 µg/mL	1 µg/mL	0.25 µg/mL	0.25 µg/mL	2 µg/mL	2 µg/mL	16 µg/mL	2 µg/mL	2 µg/mL	2 µg/mL	32 µg/mL	4 µg/mL	2 µg/mL	2 µg/mL	32 µg/mL	4 µg/mL	2 µg/mL	2 µg/mL	16 µg/mL	2 µg/mL	MIC ([4]; ΔramR mutant): 2 µg/mL; MIC ([4]; ΔramR/S83I mutant): > 32 µg/mL; MIC ([4]; ΔramR/S83I/D87N/S80I mutant): > 32 µg/mL; MIC ([4]; ΔramR/S83I/S801 mutant): > 32 µg/mL; MIC ([5]; E84K mutant): 0.38 µg/mL; MIC ([5]; G78C mutant): 0.38 µg/mL; MIC ([5]; KW1, read-out: MIC): 0.38 µg/mL; MIC ([5]; S80L mutant): 0.5 µg/mL; MIC ([5]; S80W mutant): 0.5 µg/mL; MIC ([5]; S80Y mutant): 0.38 µg/mL; MIC ([5]; S83L mutant): 6 µg/mL; MIC ([5]; S83L/E84K mutant): > 32 µg/mL; MIC ([5]; S83L/G78C mutant): 32 µg/mL; MIC ([5]; S83L/S80L mutant): > 32 µg/mL; MIC ([5]; S83L/S80W mutant): > 32 µg/mL; MIC ([5]; S83L/S80Y mutant): > 32 µg/mL
